Patent EP0321208A1, “Improvements in or relating to avian control” (priority 1987, dated 1989)
Like-named read-outs stand apart in the source and are kept apart here.

Experiments:
[1] = test system: feral pigeons; test: Three day no-choice feeding test with feral pigeons; assay type: in vivo; conditions: 0.5% w/w compound/pellet, ± standard deviation; for Mean weight difference: after the test compared with before; for Mean consumption: treated food
Method: (§1) Feral pigeons were transferred from a communal outdoor aviary to individual cages and maintained on a 10 hour light - 14 hour dark cycle. Birds were gradually weaned away from their normal diet of maize, wheat and maple peas to a standard laboratory diet of turkey starter pellets.
(§2) The pellets were oven dried and then left to absorb atmospheric moisture. The control food was sprayed with the same volume of acetone/water mixture.
(§3) A group of 35 feral pigeons was caged individually for the trials which used eight compounds of formula (I) together with sucrose octaacetate and dimethyl anthranilate, both of which are substances which are known to be avian repellents. Each bird was subjected to treatment with each compound in a random order subject to the limitation of a latin square design. Each treatment was presented to the birds in no-choice and two-choice conditions. The no-choice phase lasted 3 days, during which a bird was presented with a single bowl containing 120 g of treated food. Each bird was weighed before and after the no-choice phase, as was the amount of food remaining. There immediately followed a two-choice phase in which the birds could choose between food treated with a given chemical and a bowl containing otherwise identical pellets without the chemical (the control treatment utilising two bowls of acetone/water treated pellets, one of which was arbitrarily selected as the control). The two-choice phase lasted four days during which food consumption was monitored daily. The position of the food bowls was alternated each day in order to overcome the confusing of food preference with position preference and ample water and grit were supplied throughout the trial.

[2] = test system: bullfinch trypsin; test: BAEE assay: inhibition of bullfinch intestinal trypsin activity; assay type: biochemical; conditions: compound 1 x 10⁻⁵M; BAEE substrate; percentage inhibition of control activity ± standard deviation (n = 3); 7 min, 10 µM
Method: (§4) Dried avian intestine powder (500 mg) was extracted for 30 minutes in 1 mM HC₁ (5 ml). The extract was centrifuged at 22,000 x g for 30 minutes at 4°C. The resultant supernatant was applied to a column of Sephadex G-50, medium grade (360 mm x 15 mm) and eluted with 0.5 mM HCl at 0.7 ml/min. Fractions (3.5 ml) were collected and tested for the presence of protein by determining their absorbance at 280 nm. The proteinaceous fractions were bulked and concentrated by passing them through an ultrafiltration unit (YM 30 filter). The concentrate was collected and kept at 4°C throughout its use.
The substrate was prepared bv dissolving BAEE (10 mg) in a mixture of 50 mM Tris-HCl buffer of pH 7.5 (24 ml) and 5% (w/v) calcium chloride solution (1 ml). The bullfinch intestine protease activity was partially purified as described above prior to testing for trypsin activity. The reaction was carried out in a quartz cuvette (1 x 0.25 x 1 cm³) containing substrate (1 ml) and 50 mM Tris-HCl buffer (200 µl). The reaction was started by the addition of the partially purified intestine protease 1200 µl) and followed by the decrease in absorbance at 253 nm over a 7 minute period. All determinations were carried out in triplicate against a reagent blank.
(§5) In both the chymotrypsin and the trypsin assays a control was however carried out using the 200 µl of buffer containing no added compound.

[3] = test system: feral pigeons; test: Four day two-choice feeding test with feral pigeons; assay type: in vivo; conditions: four day two-choice; 0.5% w/w compound/pellet
Method: as §1, §2, §3
The data obtained in the four day two-choice test is presented in Table 5 for mean consumption of treated food. […]

[4] = test system: quail chymotrypsin; test: ATEE assay: inhibition of quail intestinal chymotrypsin activity; assay type: biochemical, Japanese quail; conditions: compound 1 x 10⁻⁵M; ATEE substrate; percentage inhibition of control activity ± standard deviation (n = 3); 5 min, 10 µM
Method: The substrate was prepared by dissolving ATEE (10 mg) in Tris-HCl buffer of pH 7.5 containing 30% (v/v) of methanol (25 ml). The quail intestine protease activity was partially purified as described above prior to testing for chymotrypsin activity. The reaction was carried out in a quartz cuvette (1 x 0.25 x 1 cm³) containing substrate (1 ml) and 100 mM Tris-HCl buffer (200 µl). The reaction was started by the addition of the partially purified intestine protease (200 µl) and followed bv the decrease in absorbance at 237 nm over a 5 minute period. All determinations were carried out in triplicate against a reagent blank.

[5] = pear buds
[6] = test system: pigeon trypsin; test: TAME assay: inhibition of pigeon intestinal trypsin activity; assay type: biochemical; conditions: compound 60 µg/ml; TAME substrate; percentage inhibition of control activity ± standard deviation (n = 3); 5 min
Method: as §4
The substrate was prepared by dissolving TAME (19 mg) in a mixture of 100 mM Tris-HCl buffer of pH 7.5 (50 ml) and 5% (w/v) calcium chloride solution (2 ml). The pigeon intestine protease was partially purified as described above prior to testing for trypsin activity. The reaction was carried out in a quartz cuvette (1 x 0.25 x 1 cm³) containing substrate (3 ml) and 100 mM Tris-HCl buffer pH 7.5 (100 µl). The reaction was started by the addition of the partially purified intestine protease (100 µl) and followed by the decrease in absorbance at 247 nm over a 5 minute period.
as §5

SMILES | Mean weight difference [1] [grams] | Mean consumption [1] [grams] | Inhibition of Activity Trypsin [2] [percentage] | Mean consumption of treated food [3] [grams] | Inhibition of Activity Chymotrypsin [4] [percentage] | residues as a percentage of the initial level ([5]; 192 h) [%] | Inhibition of Activity [6] [percentage] | residues as a percentage of the initial level ([5]; 1224 h) [%]
O=C(O)C=Cc1ccc(O)c(O)c1 [3,4-Dihydroxycinnamic acid] | 2.3 ± 1.1 | 63.3 ± 3.0 | 43 ± 3 | 31.1 ± 3.4 | 85 ± 2 | 8 | 22 ± 1 | 
O=C(O)C=Cc1ccccc1 [Cinnamic Acid, cinnamic acid] | 2.4 ± 1.1 | 60.4 ± 3.1 | 85 ± 2 | 25.2 ± 2.9 | 32 ± 3 | 41 | 93 ± 3 | 3
